In patent USRE46943E1, “Radioprotector compounds and methods” (PETER MACCALLUM CANCER INSTITUTE, priority 2010, dated 2018):

Experiments:
[1] = system: transformed human keratinocyte cell line (FEP 1811); experiment: Clonogenic survival cell culture assay for radioprotective activity (12 Gy 137Cs gamma irradiation); format: cell-based; details: 12 Gy; for DMF10 (dose modification factor at a concentration of 10 microM of radioprotector): 10 microM radioprotector; for DMFm (dose modification factor at maximum protection): DMF=Dp/Dc at survival level Sm; for PF (protection factor = Sm/So): survival at maximum protection vs irradiation only
From the text: PF is defined as a ratio of survival at maximum protection Sm and survival after irradiation only So: PF=Sm/So. DMF is defined as a ratio of doses that result in survival level of Sm in the presence Dp and the absence Dc of radioprotector: DMF=Dp/Dc. DMF10 is define in a similar way except that instead of Sm a survival at 10 microM of radioprotector is used.
PF (Protection Factor) is defined as a ratio of survival at maximum protection Sm and survival after irradiation only So:PF=Sm/So. DMF (Dose Modification Factor) is defined as a ratio of doses that result in survival level of Sm in the presence (Dp) and the absence (Dc) of radioprotector: DMF=Dp/Dc. DMF10 is defined in a similar way except that instead of Sm a survival at 10 microM of radioprotector is used.
(§1) • i. […] In appropriate cases, tautomers are drawn to illustrate potential hydrogen-bond donating configurations into the minor groove of DNA. • ii. 2-Amino-4-(5′-(4″-methylpiperazin-1″-yl)benzimidazol-2′-yl)aniline was prepared by hydrogenation of 4-(5′-(4″-methylpiperazin-1″-yl)benzimidazol-2′-yl)-2-nitroaniline, using a modification of the method of Kelly et al, Aust. […] 2-Amino-4-(5′-(piperidin-1″-yl)benzimidazol-2′-yl)aniline was prepared by hydrogenation of 2-nitro-4-(5′-(piperidin-1″-yl)benzimidazol-2′-yl)aniline, using a modification of the method of Kelly et al, Aust. […] Ethyl 4-amino-3-nitrobenzenecarboximidate hydrochloride was prepared by reaction of 4-amino-3-nitrobenzonitrile with dry HCl gas in ethanol, using the method of Kelly et al, Aust. […] 5-(4′-Methylpiperazin-1′-yl)-2-nitroaniline was prepared using a modification of the method of Kelly et al, Aust. […] The following chemicals were obtained from the chemical suppliers indicated: 2-furaldehyde (Aldrich), 2-pyridinecarboxaldehyde (Aldrich), 3-fluoropyridine-2-carbaldehyde (Maybridge), 3-trifluoromethylpyridine-2-carboxaldehyde (Apollo Scientific), 6-methyl-2-pyridinecarboxaldehyde (Matrix Scientific), 5-methylpyridine-2-carbonitrile (Apollo Scientific), 4-methyl-2-pyridinecarbonitrile (Aldrich), 4-chloro-2-pyridinecarbonitrile (Aldrich), 4-methoxypicolinonitrile (Combi-Blocks), pyrazinecarbonitrile (Aldrich), 2-quinolinecarbonitrile (Aldrich), 3-isoquinolinecarbonitrile (Aldrich), 1-isoquinolinecarboxylic acid (Aldrich), indazole-3-carboxylic acid (Aldrich), 2-hydroxynicotinic acid (Aldrich), 4-hydroxypiperidine (Aldrich), 1-methylhomopiperazine (Aldrich), 3-hydroxypiperidine (Aldrich), 4-(N-BOC-amino)piperidine (Aldrich), 4-methoxypiperidine (Acros), 4-methyl-3-nitrobenzonitrile (Aldrich), 5-chloro-2-nitroaniline (Aldrich), 2-cyanopyridine (Aldrich), methyl 4-amino-2-methoxybenzoic acid (Aldrich), 4-(trifluoromethyl)-2-pyridinecarbonitrile (Matrix Scientific), cis-2,6-dimethylmorphoiline (Acros), 5-(trifluoromethyl)-2-pyridinecarbonitrile (Advanced Chemical Intermediates) and 5-fluoro-2-pyridinecarbonitrile (Advanced Chemical Intermediates). • ix. […] Melting points were determined using an Electrothermal melting point apparatus, and are uncorrected. […] The abbreviations s for singlet, d for doublet, t for triplet, q for quartet, br for broad and m for muitiplet were used in the assignments of multiplicity. A value approximating the centre of a multiplet is quoted. […] The addition of a few drops of acetic acid to methanol-d4 solutions was used to enhance solubility for the acquisition of ^13C nmr spectra. Mass spectra were recorded on a Micromass Quattro II mass spectrometer and accurate mass analyses were carried out by the School of Chemistry at the University of Melbourne on a Finnigan LTQ-FT model high resolution mass spectrometer. Thin layer chromatography (TLC) was carried out using Merck silica gel 60 F254 aluminium sheets or Merck neutral aluminium oxide 150 F254 sheets. Flash column chromatography was carried out using Ajax silica gel 230-400 mesh. • xi.

[2] = system: transformed human keratinocyte cell line (FEP 1811); experiment: Clonogenic survival cell culture assay for cytotoxicity; format: cell-based; details: Homo sapiens, Keratinocyte, light or radiation study; un-irradiated keratinocytes, one hour drug exposure, colonies counted after eight days; read-out: C50 (concentration of radioprotector that results in 50% clonogenic survival)
Procedure: as §1, with “xi. […] The details are described in detail in Martin et al (4) (the disclosure of which is included herein in its entirety by way of reference), but briefly, mid-log phase monolayer cultures are incubated with various concentrations of the test drugs for one hour, after which the monolayers are washed and dispersed into single cell suspensions using pronase, and finally appropriate numbers of cells are dispensed into Petri dishes. Colonies are counted after eight days incubation. […] The irradiation (with a dose rate of 0.6 Gy per minute) is started 30 minutes after addition of the test drug. After completion of irradiation, incubation of cultures is continued until the total time of exposure to the drug reaches 60 minutes. Cultures are then washed and plated for clonogenic survival as described for the cytotoxicity experiments.” for “xi.”

| SMILES | melting point | DMF10 (dose modification factor at a concentration of 10 microM of radioprotector) [1] | DMFm (dose modification factor at maximum protection) [1] | PF (protection factor = Sm/So) [1] | IC50 [2] |
| --- | --- | --- | --- | --- | --- |
| CN1CCN(c2ccc3nc(-c4ccc5nc(-c6cnccn6)[nH]c5c4)[nH]c3c2)CC1 [Example 12, 2-(5′-(5″-(4′″-Methylpiperazin-1′″-yl)benzimidazol-2″-yl)benzimidazol-2′-yl)pyrazine] | 175 °C (dec.) | 1.15 | 1.29 | 6.5 | 54.2 µM |
| CN1CCN(c2ccc3nc(-c4ccc5nc(-c6cc7ccccc7cn6)[nH]c5c4)[nH]c3c2)CC1 [Example 14, 3-(5′-(5″-(4′″-Methylpiperazin-1′″-yl)benzimidazol-2″-yl)benzimidazol-2′-yl)isoquinoline] | 224 to 229 °C | 2.34 | 2.45 | 25.1 | 26 µM |
| CN1CCN(c2ccc3nc(-c4ccc5nc(-c6ccc[nH]c6=O)[nH]c5c4)[nH]c3c2)CC1 [Example 18, 3-(5′-(5″-(4′″-Methylpiperazin-1′″-yl)benzimidazol-2″-yl)benzimidazol-2′-yl)pyridin-2(1H)-one] | 244 to 248 °C | 1.00 | 1.01 | 1.1 | 66.8 µM |
| OC1CCN(c2ccc3nc(-c4ccc5nc(-c6ccccn6)[nH]c5c4)[nH]c3c2)CC1 [Example 22, 2-(5′-(5″-(4′″-Hydroxypiperidin-1′″-yl)benzimidazol-2″-yl)benzimidazol-2′-yl)pyridine] | 226 to 229 °C | 1.47 | 2.20 | 21.3 | 266 µM |
| CN1CCCN(c2ccc3nc(-c4ccc5nc(-c6ccccn6)[nH]c5c4)[nH]c3c2)CC1 [Example 25, 2-(5′-(5″-(4′″-Methyl-1′″,4′″-diazepan-1′″-yl)benzimidazol-2″-yl)benzimidazol-2′-yl)pyridine] | 185 °C (dec.) | 1.77 | 2.14 | 16.7 | 123 µM |
| OC1CCCN(c2ccc3nc(-c4ccc5nc(-c6ccccn6)[nH]c5c4)[nH]c3c2)C1 (stereo not shown) [Example 26, 2-(5′-(5″-(3′″-Hydroxypiperidin-1′″-yl)benzimidazol-2″-yl)benzimidazol-2′-yl)pyridine] | 278 to 282 °C | 1.33 | 1.90 | 14.7 | 77.9 µM |

Continued, in another order:

| melting point | SMILES | DMF10 (dose modification factor at a concentration of 10 microM of radioprotector) [1] | DMFm (dose modification factor at maximum protection) [1] | PF (protection factor = Sm/So) [1] | IC50 [2] |
| --- | --- | --- | --- | --- | --- |
| 214 to 217 °C | CN1CCN(c2ccc3nc(-c4ccc5nc(-c6nccc7ccccc67)[nH]c5c4)[nH]c3c2)CC1 [Example 15, 1-(5′-(5″-(4′″-Methylpiperazin-1′″-yl)benzimidazol-2″-yl)benzimidazol-2′-yl)isoquinoline] | 1.70 | 1.85 | 36.9 | 26.9 µM |
| 235 °C (dec.) | CN1CCN(c2ccc3nc(-c4ccc5nc(-c6n[nH]c7ccccc67)[nH]c5c4)[nH]c3c2)CC1 [Example 16, 3-(5′-(5″-(4′″-Methylpiperazin-1′″-yl)benzimidazol-2″-yl)benzimidazol-2′-yl)indazole] | 1.78 | 2.16 | 18.3 | 40.9 µM |
| 202 °C (dec.) | c1ccc2cc(-c3nc4ccc(-c5nc6ccc(N7CCOCC7)cc6[nH]5)cc4[nH]3)ncc2c1 [Example 20, 3-(5′-(5″-Morpholinobenzimidazol-2″-yl)benzimidazol-2′-yl)isoquinoline] | 1.52 | 1.57 | 11.4 | 172 µM |
| 214 to 230 °C | Cc1ccnc(-c2nc3ccc(-c4nc5ccc(N6CCOCC6)cc5[nH]4)cc3[nH]2)c1 [Example 21, 2-(5′-(5″-Morpholinobenzimidazol-2″-yl)benzimidazol-2′-yl)-4-methylpyridine] | 1.47 | 1.77 | 18.2 | 213 µM |
| 196 to 203 °C | c1ccc(-c2nc3ccc(-c4nc5ccc(N6CCCCC6)cc5[nH]4)cc3[nH]2)nc1 [Example 24, 2-(5′-(5″-(Piperidin-1′″-yl)benzimidazol-2″-yl)benzimidazol-2′-yl)pyridine] | 1.35 | 1.42 | 7.5 | 24 µM |
